US20220282222A1, “BIO-PRINTED KIDNEY TISSUE” (MURDOCH CHILDREN'S RESEARCH INSTITUTE, priority 2019, published 2022)
“Also recorded” adds a separate entry of the source. Like-named read-outs stand apart in the source and are kept apart here.

Key:
[1] = tested on: bio-printed kidney organoids; assay: Quantitative RT-PCR gene expression analysis following drug exposure; assay type: cell-based, human; settings: 72 hours
Protocol: (§1) Doxorubicin (Sigma-Aldrich, D1515) stock solution was prepared in DMSO. Amikacin, Tobramycin, Gentamycin, Neomycin, and Streptomycin were all procured through Sigma Aldrich (St. Louis, Mo.) and prepared as a 25 mg/ml solution in APEL media. Dosing for 6-well nephrotoxicity studies was performed by initially diluting doxorubicin DMSO stock in APEL media, and subsequently diluting further with additional media to achieve concentrations ranging from 0.3 to 10 μM. Dosing for 96-well nephrotoxicity evaluation was performed by serial dilution. For Doxorubicin, serial dilution of DMSO stocks was added to APEL media to achieve concentrations ranging from 24 nM to 25 μM. Aminoglycoside stock solutions were diluted serially with APEL media to generate dosing concentrations ranging from 1.5 μg/mL to 25 mg/mL. Drug dosing was initiated after day 21 or day 22 of the differentiation protocol. Dosing was performed by applying the full well volume of APEL medium±test article to the apical basket of a Transwell permeable support (4 mL for 6-well plates, 300 μL for 96-well plates). As media containing test articles was added to the Transwell permeable support, the organoids were fully submerged and exposed to any added compounds as the apical and basolateral compartments equilibrated. Drug-supplemented medium was replaced every other day until designated harvest time point.
Total RNA extraction from kidney organoids following drug exposure was performed using an Rneasy Mini kit (Qiagen, Germany) per manufacturer's instructions. RNA was quantified with spectrophotometry with a NanoDrop 2000 (Thermo Fisher, Carlsbad, Calif.). To analyse gene expression, TaqMan Fast One-Step qPCR Master Mix (Applied Biosystems, Foster City, Calif.), TaqMan Probes for genes of interest (ThermoFisher, Carlsbad, Calif.), and house-keeping gene probes (Applied Biosystems, Foster City, Calif.) were combined in assigned wells with RNA. All qPCR reactions were performed and analysed on a StepOnePlus qRT-PCR system (Applied Biosystems, Foster City, Calif.). All data was normalized to house-keeping gene GAPDH prior to normalizing to control samples.

[2] = tested on: bio-printed kidney organoids; assay: Organoid viability assessment by ATP content (CellTiter-Glo / CellTiter-Glo 3D) after drug treatment; settings: for IC50: Homo sapiens, 72 h; for Cell viability as measured by cellular ATP content: 96-well format, 72-hour treatment, wide concentration range (1.5 μg/mL to 25 mg/mL)
Protocol: as §1
Kidney organoid viability following drug treatment was assessed by measuring ATP content with CellTiter-Glo or CellTiter-Glo 3D viability assays (Promega, Madison, Wis., USA). In brief, harvested organoids from bio-printed in 6-well plates were individually loaded into Precellys tubes (Bertin Technologies, Bretonneux, France) with CellTiter-Glo buffer and dissociated using a Precellys 24 tissue homogenizer (Bertin Technologies, Bretonneux, France). Homogenized organoids were incubated at room temperature for 10 minutes, then centrifuged at 1000 g for 2 minutes to separate buffer from homogenizing beads. Supernatants were transferred to a white opaque 96-well plate for luminescence measurement on a microplate reader (BMG Labtech, Germany). […] To analyse the ATP content in organoids bio-printed on 96-well plates, all media was aspirated and CellTiter-Glo 3D reagent was added to the apical chamber of Transwell permeable support. The plate was shaken at 400 rpm for 5 minutes at room temperature, and then allowed to sit for 25 minutes prior to luminescent measurement in a white opaque 96-well plate on a microplate reader (BMG Labtech, Germany). Viability analysis was reported as percent of control by normalizing the ATP content of treated organoids relative to control organoids. […]

[3] = tested on: podocytes of the organoid glomeruli; assay: Immunofluorescence analysis of bio-printed organoid sections after Doxorubicin treatment; assay type: cell-based, human; settings: 10 μM Doxorubicin, 72 hours
Protocol: For paraffin-embedded organoids, deparaffinized sections were antigen retrieved in citrate buffer, pH 6.0 (Diagnostic BioSystems, Pleasonton, CA #K035) then blocked in 5% chick serum diluted in TBS-T (v/v) prior to immunofluorescence. For whole mount organoids, organoid harvest, fixation and blocking, and immunofluorescence of prepared sections and whole organoids was performed as described previously (Vanslambrouck J M, et al. J Am Soc Nephrol 30, 1811-1823 (2019)). Images were obtained as described in Vanslambrouck J M, et al. or using an Andor spinning disk confocal microscope with Nikon 25×1.05NA silicone immersion objective.
Doxorubicin (Sigma-Aldrich, D1515) stock solution was prepared in DMSO. Amikacin, Tobramycin, Gentamycin, Neomycin, and Streptomycin were all procured through Sigma Aldrich (St. Louis, Mo.) and prepared as a 25 mg/ml solution in APEL media. Dosing for 6-well nephrotoxicity studies was performed by initially diluting doxorubicin DMSO stock in APEL media, and subsequently diluting further with additional media to achieve concentrations ranging from 0.3 to 10 μM. Dosing for 96-well nephrotoxicity evaluation was performed by serial dilution. For Doxorubicin, serial dilution of DMSO stocks was added to APEL media to achieve concentrations ranging from 24 nM to 25 μM. […]

[4] = 10 μM Doxorubicin, normalized to GAPDH and control

Compound | Expression of podocyte marker NPHS1 ([1]; 2 μM Doxorubicin) | Expression of podocyte marker PODXL ([1]; 2 μM Doxorubicin) | Expression of proximal tubule gene CUBN ([1]; 2 μM or 10 μM Doxorubicin) | Expression of apoptotic indicator Bcl2-associated X protein (BAX) [1, 4] | Expression of kidney injury molecule KIM1 (HAVCR) [1, 4] | IC50 ([2]; read-out: 6-well IC50 (viability, ATP content)) [µM] | IC50 ([2]; read-out: 96-well IC50 (viability, ATP content)) [µM] | Caspase 3 activation (cleaved caspase 3, apoptosis) in podocytes [3] | MAFB staining within podocytes of organoid glomeruli [3] | Cell viability as measured by cellular ATP content [2]
COc1cccc2c1C(=O)c1c(O)c3c(c(O)c1C2=O)C[C@@](O)(C(=O)CO)C[C@@H]3O[C@H]1C[C@H](N)[C@H](O)[C@H](C)O1 [Doxorubicin] | downregulated | downregulated | only downregulated in response to 10 μM Doxorubicin | upregulation | upregulation | 3.9 ± 1.8 | 3.1 ± 1 | induction of apoptosis; also recorded: specific activation of caspase 3 | podocyte specific loss of MAFB expression; also recorded: loss of MAFB staining | 
Gentamycin |  |  |  |  |  |  |  |  |  | decreased in a concentration-dependent fashion
Neomycin |  |  |  |  |  |  |  |  |  | decreased in a concentration-dependent fashion
